Assay: Antagonist activity at CRTH2 receptor in human whole blood assessed as inhibition of PGD2-induced eosinophil shape change after 10 mins by fluorescence assay

IC50: 8 nM
SMILES: Cc1c(Cc2ccccc2S(=O)(=O)c2ccccc2)c2c(n1CC(=O)O)CCNC2=O

— BindingDB's records for doi:10.1016/j.bmcl.2014.08.026 (Rhône-Poulenc Rorer, 2014)
